Data from patent US20060264447A1, “Fungicidal mixtures for controlling rice pathogens” (priority 2003, published 2006).

System: Cochliobolus miyabeanus
Assay: Activity against brown spot of rice caused by Cochliobolus miyabeanus, protective application
Assay type: in vivo
Conditions: individual active compound, rice seedlings Tai-Nong 67, protective spray, rated after six days
Procedure: The active compounds, separately or jointly, were prepared as a stock solution with 0.25% by weight of active compound in acetone or DMSO. 1% by weight of the emulsifier Uniperol® EL (wetting agent having emulsifying and dispersing action based on ethoxylated alkylphenols) was added to this solution, and the solution was diluted with water to the desired concentration.
Leaves of potted rice seedlings of the cultivar “Tai-Nong 67” were sprayed to runoff point with an aqueous suspension of the concentration of active compound stated below. The next day, the plants were inoculated with an aqueous spore suspension of Cochliobolus miyabeanus. The test plants were then placed in climatized chambers at 22-24° C. and 95-99% relative atmospheric humidity for six days. The extent of the development of the infection on the leaves was then determined visually.
Evaluation is carried out by determining the percentage of infected plants. These percentages were converted into efficacies.
The efficacy (E) is calculated as follows using Abbot's formula: E=(1−α/β)·100 α corresponds to the fungicidal infection of the treated plants in % and β corresponds to the fungicidal infection of the untreated (control) plants in %
An efficacy of 0 means that the infection level of the treated plants corresponds to that of the untreated control plants; an efficacy of 100 means that the treated plants are not infected.
The expected efficacies of mixtures of active compounds are determined using Colby's formula (Colby, R. S. Weeds, 15, 20-22, 1967) and compared with the observed efficacies.
Colby's formula: E=x+y−x·y/100 • E expected efficacy, expressed in % of the untreated control, when using the mixture of the active compounds A and B at the concentrations a and b • x efficacy, expressed in % of the untreated control, when using the active compound A at the concentration a • y efficacy, expressed in % of the untreated control, when using the active compound B at the concentration b

O=[N+]([O-])c1cc(C(F)(F)F)c(Cl)c([N+](=O)[O-])c1Nc1ncc(C(F)(F)F)cc1Cl [compound II, 3-chloro-N-[3-chloro-2,6-dinitro-4-(trifluoromethyl)phenyl]-5-(trifluoromethyl)-2-pyridinamine]
Efficacy in % of the untreated control (4 ppm in the spray liquor): 5%
Efficacy in % of the untreated control (16 ppm in the spray liquor): 17%

CC1CCN(c2c(-c3c(F)cccc3Cl)c(Cl)nc3ncnn23)CC1 [A]
Efficacy in % of the untreated control (4 ppm in the spray liquor): 29%
Efficacy in % of the untreated control (16 ppm in the spray liquor): 53%

C[C@H](Nc1c(-c2c(F)cc(F)cc2F)c(Cl)nc2ncnn12)C(F)(F)F [B]
Efficacy in % of the untreated control (4 ppm in the spray liquor): 5%
Efficacy in % of the untreated control (16 ppm in the spray liquor): 41%

CC1CCN(c2c(-c3c(F)cc(F)cc3F)c(Cl)nc3ncnn23)CC1 [compound I, 5-chloro-7-(4-methylpiperidin-1-yl)-6-(2,4,6-trifluorophenyl)-[1,2,4]triazolo[1,5-a]pyrimidine]
Efficacy in % of the untreated control (4 ppm in the spray liquor): 5%
Efficacy in % of the untreated control (16 ppm in the spray liquor): 17%
